Data as given in patent US20230382891A1, “GLUTAMINYL-PEPTIDE CYCLOTRANSFERASE LIKE (QPCTL) PROTEIN INHIBITORS AND USES THEREOF” (Blacksmith Medicines, Inc., priority 2020, published 2023).

target: Glutaminyl-peptide cyclotransferase like (QPCTL) protein (Homo sapiens, UniProt Q9NXS2); experiment: Glutaminyl-peptide cyclotransferase like (QPCTL) protein inhibition assay (Gln-AMC substrate, pGAPase coupled); assay type: biochemical; conditions: 50 mM MES pH 7.0, 10 μM ZnCl2, 0.2 U/mL pGAPase, Gln-AMC at its Km, 30° C.
Sequence (Q9NXS2 whole entry, species assumed): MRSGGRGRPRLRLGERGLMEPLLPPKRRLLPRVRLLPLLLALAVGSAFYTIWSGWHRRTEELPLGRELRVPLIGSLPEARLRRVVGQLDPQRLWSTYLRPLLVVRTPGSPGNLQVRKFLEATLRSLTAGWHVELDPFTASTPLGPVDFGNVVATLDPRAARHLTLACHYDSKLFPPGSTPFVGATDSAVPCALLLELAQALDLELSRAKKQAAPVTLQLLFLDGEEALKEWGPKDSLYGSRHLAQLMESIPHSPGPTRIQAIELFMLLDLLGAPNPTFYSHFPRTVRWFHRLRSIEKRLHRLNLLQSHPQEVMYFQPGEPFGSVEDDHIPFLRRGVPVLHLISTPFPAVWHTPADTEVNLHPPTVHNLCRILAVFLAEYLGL
Procedure: Example B-1: Glutaminyl-Peptide Cyclotransferase Like (OPCTL) Protein Inhibition Assay
Glutaminyl-peptide cyclotransferase like (QPCTL) protein activity was determined using L-glutamine-7-amido-4-methylcoumarin (Gln-AMC, Santa Cruz Biotechnology) as a substrate. A second enzyme, pyroglutamyl aminopeptidase (pGAPase, Qiagen), was included in the assay to release the AMC fluorophore following cyclization; appropriate controls were run to ensure that inhibitors were not inhibiting the auxiliary enzyme. Inhibitors were added at various concentrations to buffer (final concentrations: 50 mM MES pH 7.0, 10 μM ZnCl2, 0.2 U/mL pGAPase, Gln-AMC at its Km) and the reaction initiated by the addition of QPCTL. Reactions became linear after a 10-minute equilibration period at 30° C. (to accumulate pGlu-AMC intermediate), and were monitored for an additional 10 minutes.
Table A provides QPCTL inhibitory activity of illustrative compounds, where A means IC50 is <1 μM; B means IC50 is between 1 to 10 μM; C means IC50 is between 10 to 50 PM; D means IC50 is >50 PM.

Compound	QPCTL IC50	IC50
c1ccc(N2CCC(C3CCCn4cnnc43)CC2)nc1 (stereo not shown) [Compound 27, 8-(1-(pyridin-2-yl)piperidin-4-yl)-5,6,7,8-tetrahydro-[1,2,4]triazolo[4,3-a]pyridine]	C (C means IC50 is between 10 to 50 PM)	–
Cc1c(N)nnn1C1CCN(c2ncccc2-c2ccc(F)nc2)CC1 [Compound 10, 1-(1-(6′-fluoro-[3,3′-bipyridin]-2-yl)piperidin-4-yl)-5-methyl-1H-1,2,3-triazol-4-amine]	–	< 1000 nM
Nc1nnc2c(C3CCN(c4ncccc4-c4ccc(F)nc4)CC3)cccn12 [Compound 17, 8-(1-(6′-fluoro-[3,3′-bipyridin]-2-yl)piperidin-4-yl)-[1,2,4]triazolo[4,3-a]pyridin-3-amine]	–	< 1000 nM
Nc1ccc(-c2cccnc2N2CC=C(c3cccn4cnnc34)CC2)cn1 [Compound 13, 4-([1,2,4]triazolo[4,3-a]pyridin-8-yl)-3,6-dihydro-2H-[1,2′:3′,3″-terpyridin]-6″-amine]	–	1000 to 10000 nM
C1=C(c2cccn3cnnc23)CCN(c2ccccn2)C1 [Compound 22, 8-(3,6-dihydro-2H-[1,2′-bipyridin]-4-yl)-[1,2,4]triazolo[4,3-a]pyridine]	C (C means IC50 is between 10 to 50 PM)	–
CNc1nnc(C2CCN(c3ncccc3-c3ccc(F)nc3)CC2)[nH]1 [Compound 7, 5-(1-(6′-fluoro-[3,3′-bipyridin]-2-yl)piperidin-4-yl)-N-methyl-4H-1,2,4-triazol-3-amine]	–	< 1000 nM
1-(1-(6′-chloro-[3,3′-bipyridin]-2-yl)piperidin-4-yl)-1H-1,2,3-triazol-4-amine [Compound 3]	–	< 1000 nM
Fc1ccc(CN2CC=C(c3cccn4cnnc34)CC2)cn1 [Compound 21, 8-(1-((6-fluoropyridin-3-yl)methyl)-1,2,3,6-tetrahydropyridin-4-yl)-[1,2,4]triazolo[4,3-a]pyridine]	D (D means IC50 is >50 PM)	–
COCCOc1ccc(-c2cccnc2N2CC=C(c3cccn4cnnc34)CC2)cn1 [Compound 19, 8-(6″-(2-methoxyethoxy)-3,6-dihydro-2H-[1,2′:3′,3″-terpyridin]-4-yl)-[1,2,4]triazolo[4,3-a]pyridine]	–	1000 to 10000 nM
Nc1nnc(C2CCN(c3ncccc3-c3ccc(F)nc3)CC2)o1 [Compound 2, 5-(1-(6′-fluoro-[3,3′-bipyridin]-2-yl)piperidin-4-yl)-1,3,4-oxadiazol-2-amine]	–	< 1000 nM
COc1ccc(-c2cccnc2N2CC=C(c3cccn4cnnc34)CC2)cn1 [Compound 14, 8-(6″-methoxy-3,6-dihydro-2H-[1,2′:3′,3″-terpyridin]-4-yl)-[1,2,4]triazolo[4,3-a]pyridine]	–	1000 to 10000 nM
COc1ccc(CN2CCC=C(c3cccn4cnnc34)C2)cc1OC [Compound 25, 8-(1-(3,4-dimethoxybenzyl)-1,2,5,6-tetrahydropyridin-3-yl)-[1,2,4]triazolo[4,3-a]pyridine]	D (D means IC50 is >50 PM)	–
Fc1ccc(-c2cccnc2N2CC=C(c3cccn4cnnc34)CC2)cc1F [Compound 11, 8-(3′-(3,4-difluorophenyl)-3,6-dihydro-2H-[1,2′-bipyridin]-4-yl)-[1,2,4]triazolo[4,3-a]pyridine]	C (C means IC50 is between 10 to 50 PM)	–
Fc1ccc(-c2cccnc2N2CC=C(c3cccn4cnnc34)CC2)cn1 [Compound 18, 8-(6″-fluoro-3,6-dihydro-2H-[1,2′:3′,3″-terpyridin]-4-yl)-[1,2,4]triazolo[4,3-a]pyridine]	–	1000 to 10000 nM
Cc1ccc(-c2ccc(F)nc2)c(N2CCC(c3nnc(N)n3C)CC2)n1 [Compound 4, 5-(1-(6′-fluoro-6-methyl-[3,3′-bipyridin]-2-yl)piperidin-4-yl)-4-methyl-4H-1,2,4-triazol-3-amine]	–	< 1000 nM
Cn1c(N)nnc1C1CCN(c2nc(F)ccc2-c2ccc(F)nc2)CC1 [Compound 5, 5-(1-(6,6′-difluoro-[3,3′-bipyridin]-2-yl)piperidin-4-yl)-4-methyl-4H-1,2,4-triazol-3-amine]	–	< 1000 nM
Nc1nnc(C2CCN(c3ncccc3-c3ccc(F)nc3)CC2)[nH]1 [Compound 1, 5-(1-(6′-fluoro-[3,3′-bipyridin]-2-yl)piperidin-4-yl)-4H-1,2,4-triazol-3-amine]	–	< 1000 nM
OCCn1cc(C2CN(c3ccccn3)CC=C2c2cccn3cnnc23)cn1 (stereo not shown) [Compound 26, 2-(4-(4-([1,2,4]triazolo[4,3-a]pyridin-8-yl)-3,6-dihydro-2H-[1,2′-bipyridin]-3-yl)-1H-pyrazol-1-yl)ethan-1-ol]	–	1000 to 10000 nM
C1=C(c2cccn3cnnc23)CCN(c2ncccc2-c2cncnc2)C1 [Compound 16, 8-(3′-(pyrimidin-5-yl)-3,6-dihydro-2H-[1,2′-bipyridin]-4-yl)-[1,2,4]triazolo[4,3-a]pyridine]	C (C means IC50 is between 10 to 50 PM)	–
C1=C(c2cccn3cncc23)CCN(c2ccccn2)C1 [Compound 24, 8-(3,6-dihydro-2H-[1,2′-bipyridin]-4-yl)imidazo[1,5-a]pyridine]	–	1000 to 10000 nM
N#Cc1ccc(-c2cccnc2N2CC=C(c3cccn4cnnc34)CC2)cn1 [Compound 12, 4-([1,2,4]triazolo[4,3-a]pyridin-8-yl)-3,6-dihydro-2H-[1,2′:3′,3″-terpyridine]-6″-carbonitrile]	–	1000 to 10000 nM
COc1ccc(C2=CCCN(CC#Cc3cccn4cnnc34)C2)cc1OC [Compound 23, 8-(3-(5-(3,4-dimethoxyphenyl)-3,6-dihydropyridin-1(2H)-yl)prop-1-yn-1-yl)-[1,2,4]triazolo[4,3-a]pyridine]	C (C means IC50 is between 10 to 50 PM)	–
Nc1nnc2c(C3=CCN(c4ncccc4-c4ccc(F)nc4)CC3)cccn12 [Compound 15, 8-(6″-fluoro-3,6-dihydro-2H-[1,2′:3′,3″-terpyridin]-4-yl)-[1,2,4]triazolo[4,3-a]pyridin-3-amine]	–	< 1000 nM
Fc1ccc(-c2cccnc2N2CC=C(c3cccn4cncc34)CC2)cn1 [Compound 20, 8-(6″-fluoro-3,6-dihydro-2H-[1,2′:3′,3″-terpyridin]-4-yl)imidazo[1,5-a]pyridine]	–	1000 to 10000 nM
Cn1c(N)nnc1C1CCN(c2ncccc2-c2ccc(F)nc2)CC1 [Compound 6, 5-(1-(6′-fluoro-[3,3′-bipyridin]-2-yl)piperidin-4-yl)-4-methyl-4H-1,2,4-triazol-3-amine]	–	< 1000 nM
